Structures can show the parent of a compound that is named as a salt.
Experiments:
[1] = target: KDR kinase (Seq ID No. 3) (Homo sapiens, UniProt P35968, DEL940-989/E990V); assay: KDR kinase assay (assays K1, K2, K3); type: biochemical; settings: enzymatic assay; variant K1, K2 or K3 not given
Description: The activity of KDR kinase was determined by following the production of ADP from the kinase reaction through coupling with the pyruvate kinase/lactate dehydrogenase system (e.g., Schindler et al. Science 2000, 289, pp. 1938-1942). In this assay, the oxidation of NADH (thus the decrease at A340 nm) was continuously monitored spectrophotometrically. The reaction mixture (100 μl) contained KDR (Seq ID No. 3, 1.5 nM to 7.1 nM, nominal concentration), polyE4Y (1 mg/mL), pyruvate kinase (3.5 units), lactate dehydrogenase (5.5 units), phosphoenolpyruvate (1 mM), and NADH (0.28 mM) in 60 mM Tris buffer containing 0.13% octyl-glucoside, 13 mM MgCl2, 6.8 mM DTT, test compound, and 3.5% DMSO at pH 7.5. The reaction was initiated by adding ATP (0.2 mM, final concentration). The absorption at 340 nm was continuously monitored for 3 h at 30° C. on a Polarstar Optima plate reader (BMG) or instrument of similar capacity. The reaction rate was calculated using the 1 h to 2 h time frame. Percent inhibition was obtained by comparison of reaction rate with that of a control (i.e., with no test compound). IC50 values were calculated from a series of percent inhibition values determined at a range of inhibitor concentrations using software routines as implemented in the GraphPad Prism software package.
KDR kinase assay K2 is the same as for assay K1 except that (1) a nominal concentration of 2.1 nM of enzyme was employed (2) the reaction was pre-incubated with test compound at 30° C. for 2 h prior to initiation with ATP and (3) 1.0 mM ATP (final concentration) was used to initiate the reaction.
KDR kinase assay K3 is the same as for assay K1 except that (1) a nominal concentration of 1.1 nM of enzyme was employed, (2) the buffer components per 100 μl reaction mixture were as follows: 75 mM Tris buffer containing 0.066% octyl-glucoside, 17 mM MgCl2, and 1% DMSO at pH 7.5, (3) the final concentration of DTT was 0.66 mM, (4) the reaction was pre-incubated with test compound at 30° C. for 1 h prior to initiation with ATP, and (5) 1.0 mM ATP (final concentration) was used to initiate the reaction.

MKN-45 cells = assay: MKN-45 cell proliferation assay (resazurin); type: cell-based; settings: Homo sapiens, 67 h + 5 h resazurin
Description: (§1) MKN-45 cells (catalog #JCRB0254) were obtained from the Japan Health Science Research Resources Bank, Osaka, Japan. Briefly, cells were grown in RPMI 1640 media supplemented with 10% characterized fetal bovine serum (Invitrogen, Carlsbad, Calif.) at 37° C., 5% CO2, 95% humidity. Cells were allowed to expand until reaching 70-95% confluency at which point they were subcultured or harvested for assay use.
(§2) A serial dilution of test compound was dispensed into a 96-well black clear bottom plate (Corning, Corning, N.Y.). Five thousand cells were added per well in 200 μL complete growth medium. Plates were incubated for 67 hours at 37° C., 5% CO2, 95% humidity. At the end of the incubation period 40 μL of a 440 μM solution of resazurin (Sigma, St. Louis, Mo.) in PBS was added to each well and plates were incubated for an additional 5 h at 37° C., 5% CO2, 95% humidity. Plates were read on a Synergy2 reader (Biotek, Winooski, Vt.) using an excitation of 540 nm and an emission of 600 nm. Data was analyzed using Prism software (GraphPad, San Diego, Calif.) to calculate IC50 values.

[2] = target: T1, Phospho-MET in EBC-1 cells (Homo sapiens, UniProt P08581); assay: EBC-1 phospho-MET ELISA; type: cell-based; settings: 6 h compound, 40 ng/mL HGF 10 min, read-out: EBC1 pMET
T1 construct: endogenous in cells; host or cells: EBC-1 (JCRB0820)
Description: as §1, with “EBC-1” for “MKN-45”, “#JCRB0820)” for “#JCRB0254)”, “DMEM” for “RPMI 1640 media”
Fifteen thousand cells in DMEM supplemented with 0.5% characterized fetal bovine serum (FBS; Invitrogen, Carlsbad, Calif.) were added per well in a 96-well black clear bottom plate (Corning, Corning, N.Y.). Cells were then incubated overnight at 37 degrees Celsius, 5% CO2, 95% humidity. A serial dilution of test compound was dispensed into another 96-well black clear bottom plate (Corning, Corning, N.Y.) containing DMEM supplemented with 0.5% FBS. Diluted compound was then added to plates containing cells and incubated for 6 hours at 37 degrees Celsius, 5% CO2, 95% humidity. Cells were stimulated with 40 ng/mL HGF (R&D Systems, Minneapolis, Minn.) for 10 minutes, and then lysed. Phospho-MET in cell lysates was detected using the DuoSet IC Human Phospho-HGF R/c-MET ELISA (R&D Systems, Minneapolis, Minn.). Data was analyzed using Prism software (Graphpad, San Diego, Calif.) to calculate IC50 values.

EBC-1 cells = assay: EBC-1 cell proliferation assay (resazurin); type: cell-based; settings: Homo sapiens, 67 h + 5 h resazurin, read-out: EBC1 Proliferation
Description: as §1, with “EBC-1” for “MKN-45”, “#JCRB0820)” for “#JCRB0254)”, “DMEM” for “RPMI 1640 media”
as §2, with “N.Y.). For each cell line, five” for “N.Y.). Five”, “and” for “and plates were”, “5 hours” for “5 h”

T1 sequence (P08581 25-1390): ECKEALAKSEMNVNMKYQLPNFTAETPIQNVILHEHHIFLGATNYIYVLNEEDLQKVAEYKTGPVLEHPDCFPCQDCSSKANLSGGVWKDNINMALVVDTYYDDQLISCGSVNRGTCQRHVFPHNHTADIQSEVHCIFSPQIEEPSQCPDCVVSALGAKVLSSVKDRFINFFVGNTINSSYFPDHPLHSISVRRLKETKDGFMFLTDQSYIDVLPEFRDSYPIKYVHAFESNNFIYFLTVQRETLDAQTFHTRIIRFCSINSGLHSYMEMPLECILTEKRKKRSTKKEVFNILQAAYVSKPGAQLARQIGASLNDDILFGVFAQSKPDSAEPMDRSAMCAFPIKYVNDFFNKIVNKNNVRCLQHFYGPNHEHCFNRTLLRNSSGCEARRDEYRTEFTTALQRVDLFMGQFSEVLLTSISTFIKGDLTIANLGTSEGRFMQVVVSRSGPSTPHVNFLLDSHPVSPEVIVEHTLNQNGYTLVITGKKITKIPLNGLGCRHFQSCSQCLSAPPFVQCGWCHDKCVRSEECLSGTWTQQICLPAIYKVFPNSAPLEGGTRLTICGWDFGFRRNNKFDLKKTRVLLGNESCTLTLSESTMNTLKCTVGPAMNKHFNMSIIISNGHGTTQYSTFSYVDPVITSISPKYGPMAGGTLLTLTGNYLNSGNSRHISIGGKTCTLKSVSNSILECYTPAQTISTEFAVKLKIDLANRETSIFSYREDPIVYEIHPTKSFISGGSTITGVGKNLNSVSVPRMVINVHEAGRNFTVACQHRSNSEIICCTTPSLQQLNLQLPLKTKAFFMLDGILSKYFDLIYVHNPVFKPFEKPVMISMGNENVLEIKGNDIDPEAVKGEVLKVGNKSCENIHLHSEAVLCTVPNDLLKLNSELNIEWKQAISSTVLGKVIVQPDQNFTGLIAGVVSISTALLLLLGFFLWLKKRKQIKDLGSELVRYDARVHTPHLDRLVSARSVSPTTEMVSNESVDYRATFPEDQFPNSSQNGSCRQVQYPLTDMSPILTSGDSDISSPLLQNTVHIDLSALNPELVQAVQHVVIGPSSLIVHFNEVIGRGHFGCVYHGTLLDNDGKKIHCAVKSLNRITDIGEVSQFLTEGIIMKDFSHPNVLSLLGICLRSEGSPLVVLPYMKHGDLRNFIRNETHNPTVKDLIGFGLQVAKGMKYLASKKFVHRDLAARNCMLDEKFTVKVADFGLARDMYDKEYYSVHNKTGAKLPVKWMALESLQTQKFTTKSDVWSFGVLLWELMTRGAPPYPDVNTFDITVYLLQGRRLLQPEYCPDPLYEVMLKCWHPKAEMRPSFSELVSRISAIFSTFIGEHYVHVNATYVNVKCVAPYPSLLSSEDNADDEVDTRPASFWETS
KDR kinase (Seq ID No. 3), sequence (P35968 with tags, fused parts or gaps DEL940-989/E990V): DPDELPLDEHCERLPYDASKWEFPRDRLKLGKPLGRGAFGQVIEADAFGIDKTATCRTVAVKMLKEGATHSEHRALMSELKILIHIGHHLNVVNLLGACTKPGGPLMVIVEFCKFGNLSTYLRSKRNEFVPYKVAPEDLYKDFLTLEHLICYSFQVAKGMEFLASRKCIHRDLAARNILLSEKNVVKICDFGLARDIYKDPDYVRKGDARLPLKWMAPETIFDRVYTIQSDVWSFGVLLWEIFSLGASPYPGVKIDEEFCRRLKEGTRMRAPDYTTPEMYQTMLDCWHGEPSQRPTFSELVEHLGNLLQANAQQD

IC50 [1] | IC50 (MKN-45 cells) | IC50 [2] | Structure (SMILES) | IC50 (EBC-1 cells)
> 1000 nM | ≤ 100 nM | ≤ 100 nM | CCOc1ccn(-c2ccc(F)cc2)c(=O)c1C(=O)Nc1cc(F)c(Oc2ccnc(-c3cnn(C)c3)c2)cc1F [Example 2, N-(2,5-difluoro-4-(2-(1-methyl-1H-pyrazol-4-yl)pyridin-4-yloxy)phenyl)-4-ethoxy-1-(4-fluorophenyl)-2-oxo-1,2-dihydropyridine-3-carboxamide] | ≤ 100 nM
> 1000 nM |  | ≤ 100 nM | O=C(Nc1cc(F)c(Oc2ccnc(-c3cnn(CCO)c3)c2)cc1F)c1cccn(-c2ccc(F)cc2)c1=O [Example 3, N-(2,5-difluoro-4-((2-(1-(2-hydroxyethyl)-1H-pyrazol-4-yl)pyridin-4-yl)oxy)phenyl)-1-(4-fluorophenyl)-2-oxo-1,2-dihydropyridine-3-carboxamide hydrochloride] | 
> 1000 nM | ≤ 100 nM | ≤ 100 nM | Cn1cc(-c2cc(Oc3cc(F)c(NC(=O)c4cccn(-c5ccc(F)cc5)c4=O)cc3F)ccn2)cn1 [Example 1, N-(2,5-difluoro-4-((2-(1-methyl-1H-pyrazol-4-yl)pyridin-4-yl)oxy)phenyl)-1-(4-fluorophenyl)-2-oxo-1,2-dihydropyridine-3-carboxamide] | ≤ 100 nM
> 1000 nM | 100 to 1000 nM |  | CCNc1ccn(-c2ccc(F)cc2)c(=O)c1C(=O)Nc1cc(F)c(Oc2ccnc(-c3cnn(C)c3)c2)cc1F [Example 5, N-(2,5-difluoro-4-((2-(1-methyl-1H-pyrazol-4-yl)pyridin-4-yl)oxy)phenyl)-4-(ethylamino)-1-(4-fluorophenyl)-2-oxo-1,2-dihydropyridine-3-carboxamide] | 100 to 1000 nM
